PubChem BioAssay AID256 (DTP/NCI, 2004)
Several values for one entry are separate records, joined by “and”; a condition that tells them apart may be missing. Identical values can stand only once. Inconclusive results and toxic doses are left out. The calls were made as follows: active = survival T/C of 150% or more; inactive = T/C below 125% in these data.

Tested on: CD2F1 mice, L1210 leukemia ip, survival T/C
Assay: NCI In Vivo Anticancer Drug Screen. Data for tumor model L1210 Leukemia (intraperitoneal) in CD2F1 (CDF1) mice
Conditions: higher = longer survival
Outline: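 Read-out first: treated-group measurement over vehicle-control measurement, expressed as a ratio. Animals bore a transplanted tumor line and were dosed with compound or vehicle.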

[1] = endpoint: mean survival time, dose: 50.0 mg/kg/injection, schedule: Q01DX009 (ip), vehicle: Klucel (hydroxypropylcellulose) (HPC)
[2] = endpoint: mean survival time, dose: 100.0 mg/kg/injection, schedule: Q01DX009 (ip), vehicle: Klucel (hydroxypropylcellulose) (HPC)
[3] = endpoint: mean survival time, dose: 100.0 mg/kg/injection, schedule: Q01DX001 (ip), vehicle: saline with Tween-80
[4] = endpoint: mean survival time, dose: 200.0 mg/kg/injection, schedule: Q01DX001 (ip), vehicle: saline with Tween-80
[5] = endpoint: mean survival time, dose: 400.0 mg/kg/injection, schedule: Q01DX001 (ip), vehicle: saline with Tween-80
[6] = endpoint: mean survival time, dose: 100.0 mg/kg/injection, schedule: Q01DX009 (ip), vehicle: saline with Tween-80
[7] = endpoint: mean survival time, dose: 200.0 mg/kg/injection, schedule: Q01DX009 (ip), vehicle: saline with Tween-80
[8] = endpoint: mean survival time, dose: 400.0 mg/kg/injection, schedule: Q01DX009 (ip), vehicle: saline with Tween-80
[9] = endpoint: mean survival time, dose: 100.0 mg/kg/injection, schedule: Q01DX001 (ip), vehicle: saline sonified
[10] = endpoint: mean survival time, dose: 100.0 mg/kg/injection, schedule: Q04DX003 (ip), vehicle: saline with Tween-80
[11] = endpoint: mean survival time, dose: 200.0 mg/kg/injection, schedule: Q04DX003 (ip), vehicle: saline with Tween-80
[12] = endpoint: mean survival time, dose: 400.0 mg/kg/injection, schedule: Q04DX003 (ip), vehicle: saline with Tween-80
[13] = endpoint: mean survival time, dose: 100.0 mg/kg/injection, schedule: Q04DX002 (ip), vehicle: saline with Tween-80
[14] = endpoint: mean survival time, dose: 200.0 mg/kg/injection, schedule: Q04DX002 (ip), vehicle: saline with Tween-80
[15] = endpoint: mean survival time, dose: 400.0 mg/kg/injection, schedule: Q04DX002 (ip), vehicle: saline with Tween-80

Measured: T/C

c1cc(OCC2CO2)ccc1OCC1CO1 (stereo unspecified)
inactive: endpoint: mean survival time, dose: 25.0 mg/kg/injection, schedule: Q01DX009 (ip), vehicle: Klucel (hydroxypropylcellulose) (HPC) 110 % of control | [1] 107 % of control | [2] 113 % of control

CC1CC(C)(C)N=C(Cc2ccccc2)O1 (stereo unspecified)
inactive: [3] 101 % of control | [4] 93 % of control | [5] 96 % of control

O=C(O)C(Cc1ccc(O)cc1)c1ccccc1 (stereo unspecified)
inactive: [6] 103 % of control | [7] 101 % of control | [8] 95 % of control

CC(N)(CCOCc1ccccc1)C(=O)O (stereo unspecified)
inactive: [3] 97 % of control | [6] 103 % of control | [4] 96 % of control | [7] 101 % of control | [5] 103 % of control | [8] 101 % of control

C1OCC2[CH2][Hg][S][Hg][CH2]C1O2
inactive: endpoint: mean survival time, dose: 4.0 mg/kg/injection, schedule: Q01DX015 (ip), vehicle: saline 109 % of control | endpoint: mean survival time, dose: 8.0 mg/kg/injection, schedule: Q01DX015 (ip), vehicle: saline 107 % of control

O=C1c2ccccc2C(=O)N1Cc1cc([N+](=O)[O-])ccc1Cl
inactive: [1] 92 % of control | [2] 94 % of control | endpoint: mean survival time, dose: 200.0 mg/kg/injection, schedule: Q01DX009 (ip), vehicle: Klucel (hydroxypropylcellulose) (HPC) 90 % of control

NC(=S)N/N=C/c1cc(=O)c2cc(Cl)ccc2o1
inactive: endpoint: median survival time, dose: 75.0 mg/kg/injection, schedule: Q01DX005 (ip), vehicle: DMSO 95 % of control | endpoint: median survival time, dose: 150.0 mg/kg/injection, schedule: Q01DX005 (ip), vehicle: DMSO 98 % of control | endpoint: median survival time, dose: 300.0 mg/kg/injection, schedule: Q01DX005 (ip), vehicle: DMSO 97 % of control | endpoint: median survival time, dose: 600.0 mg/kg/injection, schedule: Q01DX005 (ip), vehicle: DMSO 96 % of control | endpoint: median survival time, dose: 1200.0 mg/kg/injection, schedule: Q01DX005 (ip), vehicle: DMSO 104 % of control

O=S(=O)(/N=C1\c2ccccc2/C(=N\S(=O)(=O)c2ccccc2)C2C3C=CC(C3)C12)c1ccccc1 (stereo unspecified)
inactive: endpoint: mean survival time, dose: 25.0 mg/kg/injection, schedule: Q01DX001 (ip), vehicle: saline sonified 107 % of control | endpoint: mean survival time, dose: 50.0 mg/kg/injection, schedule: Q01DX001 (ip), vehicle: saline sonified 102 % of control | [9] 101 % of control

C/C=C/c1cnc(N)nc1-c1ccc(OC)cc1
inactive: [3] 97 % of control | [4] 94 % of control | [5] 97 % of control

COC1=C(OC)C(=O)C(N(C)C)=C(CO)C1=O
inactive: endpoint: median survival time, dose: 15.0 mg/kg/injection, schedule: Q01DX005 (ip), vehicle: saline 102 % of control | endpoint: median survival time, dose: 30.0 mg/kg/injection, schedule: Q01DX005 (ip), vehicle: saline 100 % of control | endpoint: median survival time, dose: 60.0 mg/kg/injection, schedule: Q01DX005 (ip), vehicle: saline 103 % of control | endpoint: median survival time, dose: 120.0 mg/kg/injection, schedule: Q01DX005 (ip), vehicle: saline 107 % of control

O=C(Nc1ccccc1)Nc1nnnc2ccccc12
inactive: [10] 101 % of control | [11] 90 % of control | [12] 101 % of control

Nc1nc(N)c2c(n1)CN(c1ccccc1)C2
inactive: endpoint: mean survival time, dose: 75.0 mg/kg/injection, schedule: Q01DX001 (ip), vehicle: saline 102 % of control | endpoint: mean survival time, dose: 150.0 mg/kg/injection, schedule: Q01DX001 (ip), vehicle: saline 104 % of control | endpoint: mean survival time, dose: 300.0 mg/kg/injection, schedule: Q01DX001 (ip), vehicle: saline 106 % of control

CC(=O)OCC1OC(Oc2ccccc2)C(OC(C)=O)C(OC(C)=O)C1OC(C)=O (stereo unspecified)
inactive: endpoint: median survival time, dose: 50.0 mg/kg/injection, schedule: Q04DX002 (ip), vehicle: saline with Tween-80 100 % of control | endpoint: median survival time, dose: 100.0 mg/kg/injection, schedule: Q04DX002 (ip), vehicle: saline with Tween-80 100 % of control | endpoint: median survival time, dose: 200.0 mg/kg/injection, schedule: Q04DX002 (ip), vehicle: saline with Tween-80 111 % of control | endpoint: median survival time, dose: 400.0 mg/kg/injection, schedule: Q04DX002 (ip), vehicle: saline with Tween-80 88 % of control

Cn1c(C(N)=O)cc(=O)n1-c1ccccc1
inactive: [9] 102 % of control | [6] 107 % of control | endpoint: mean survival time, dose: 200.0 mg/kg/injection, schedule: Q01DX001 (ip), vehicle: saline sonified 96 % of control | [7] 103 % of control | endpoint: mean survival time, dose: 400.0 mg/kg/injection, schedule: Q01DX001 (ip), vehicle: saline sonified 98 % of control | [8] 105 % of control

O=C(C=C(C(F)(F)F)C(F)(F)F)c1ccc(F)cc1
inactive: endpoint: mean survival time, dose: 100.0 mg/kg/injection, schedule: Q04DX003 (ip), vehicle: other 88 % of control

NCCc1c[nH]c2ccccc12 (tested in a mixture with another compound)
inactive: [10] 97 % of control | [11] 101 % of control | [12] 94 % of control

Oc1ccccc1/C=N/c1nc(-c2ccccc2)cs1.[Co].[O-]c1ccccc1/C=N/c1nc(-c2ccccc2)cs1
inactive: [4] 86 % of control | [5] 89 % of control

CCCCNC(=O)c1ccc2c(c1)C(=O)N(CCCC)C2=O
inactive: [13] 101 % of control | [14] 104 % of control | [15] 93 % of control

NCCS/C=C/C(=O)Oc1ccc(Br)cc1
inactive: [10] 103 % of control | [11] 96 % of control

Nc1ncnc2cc3ncn(C4OC(CO)C(O)C4O)c3cc12 (stereo unspecified)
inactive: endpoint: mean survival time, dose: 12.5 mg/kg/injection, schedule: Q01DX005 (ip), vehicle: water 100 % of control | endpoint: mean survival time, dose: 25.0 mg/kg/injection, schedule: Q01DX005 (ip), vehicle: water 104 % of control | endpoint: mean survival time, dose: 50.0 mg/kg/injection, schedule: Q01DX005 (ip), vehicle: water 106 % of control | endpoint: mean survival time, dose: 100.0 mg/kg/injection, schedule: Q01DX005 (ip), vehicle: water 100 % of control | endpoint: mean survival time, dose: 200.0 mg/kg/injection, schedule: Q01DX005 (ip), vehicle: water 100 % of control

COc1cc(OC)c(NC(=O)N2CCN(C)CC2)cc1Cl
inactive: endpoint: mean survival time, dose: 50.0 mg/kg/injection, schedule: Q01DX009 (ip), vehicle: saline with Tween-80 88 % of control | [6] 94 % of control

C1CCC(C2CCCC[N-]2)[N-]C1.CC(C)CC([NH-])C(=O)O.[Cl][Pt] (stereo unspecified)
inactive: endpoint: median survival time, dose: 10.0 mg/kg/injection, schedule: Q04DX003 (ip), vehicle: saline 96 % of control | endpoint: median survival time, dose: 20.0 mg/kg/injection, schedule: Q04DX003 (ip), vehicle: saline 100 % of control | endpoint: median survival time, dose: 40.0 mg/kg/injection, schedule: Q04DX003 (ip), vehicle: saline 97 % of control | endpoint: median survival time, dose: 80.0 mg/kg/injection, schedule: Q04DX003 (ip), vehicle: saline 101 % of control and 104 % of control | endpoint: median survival time, dose: 160.0 mg/kg/injection, schedule: Q04DX003 (ip), vehicle: saline 104 % of control | endpoint: median survival time, dose: 320.0 mg/kg/injection, schedule: Q04DX003 (ip), vehicle: saline 93 % of control

COc1ccc(CC(=O)O)cc1OC
inactive: [6] 94 % of control | [7] 103 % of control | [8] 89 % of control

O=C1C=C(NS(=O)(=O)c2ccccc2)C(=O)c2ccccc21
inactive: [6] 101 % of control | [10] 101 % of control | [7] 97 % of control | [11] 95 % of control | [8] 97 % of control | [12] 89 % of control

O=C(NC(=S)Nc1cccc2c(O)cccc12)c1cccc(Br)c1
inactive: [3] 88 % of control and 91 % of control | [6] 86 % of control and 98 % of control | [13] 90 % of control and 91 % of control | [10] 94 % of control | [4] 88 % of control and 92 % of control | [7] 103 % of control and 108 % of control | [14] 91 % of control and 94 % of control | [11] 94 % of control | [5] 88 % of control and 90 % of control | [8] 116 % of control and 108 % of control | [15] 90 % of control and 95 % of control | [12] 94 % of control
